The source of these data is patent US20250049867A1, “[…] HERPESVIRUSES” (VIROGIN BIOTECH CANADA LTD., priority 2021, published 2025).

≈ marks a conversion by molar mass, not a printed value.

Data set [1] deals with GL261 cells modified to express mNectin1. In words: Orthotopic mNectin1-expressing GL261 glioblastoma model, intratumoral virus injection, survival. The class given is in vivo, mice. The conditions noted are these: co-expressed with the mIL12 and anti-PD1 payload; GL261-luc-N1.
Procedure: In vivo experiments were conducted to test the efficacy of the HSV oncolytic virus encoding different payload molecules against glioblastoma. Two orthotopic mouse models were used. One orthotopic model used CT2A cells modified to express FLuc which enables imaging post-implantation. The other orthotopic model used GL261 cells modified to express mNectin1, which enabled HSV infection, and also to express FLuc which enabled imaging post-implantation. Cells were implanted intracranially in 12-week-old C57B16 mice by stereotactic injection, and one week later the tumors were injected with the indicated viruses.
The control virus contained only the BAC sequences but not the payload sequence. In the first set of experiments, viruses encoding mouse IL-12 (mIL-12) and/or anti-PD-1 antibody and the control virus were each injected intratumorally at the indicated time and dosage according to FIG. 22A and FIG. 22B.
For the combination screens, GL261-luc-N1 cells were intracranially implanted in 12-week-old C57B16 mice, then 1 week later the tumors were injected with the combination of viruses encoding various candidate payloads.
GL261-luc-N1 or CT2A-luc-N1 cells were intracranially implanted in 12-week-old C57B16 mice, then 1 week later the tumors were injected with the indicated viruses.
The test system of data set [2] is ONCR-1010 with UL30-L774F mutation (ONCR-1012). The data set is described as follows: Acyclovir sensitivity plaque titer assay on Vero cell monolayers. The conditions noted are these: 96 h, 90% reduction in plaque titer, 4 days. The class given is cell-based, HSV. As for the experimental part:
(§1) Acyclovir can be used as a prodrug in HSV-TK mediated suicide gene therapy of cancer, which requires its phosphorylation by HSV thymidine kinase (TK). Virus sensitivity to acyclovir was assayed by adding increasing concentrations of the drug to intact Vero cell monolayers and then infecting with a standard dose of virus. The Vero cell monolayers were incubated for 4 days to allow for virus growth, and then the virus was harvested and the corresponding lysates assayed for virus by plaque assay. The IC90 was calculated as the amount of acyclovir that produced a 90% reduction in plaque titer compared to the untreated control.

The subject of another data set is ONCR-1010. Described as above. The class given is cell-based, HSV. Particulars: 96 h, 90% reduction in plaque titer, 4 days. As for the experimental part:
as §1

For data set [3] the following is noted: dosed orally; cited from earlier work.

“15-hydroxyprostaglandin dehydrogenase [PGDH, 15-hydroxyprostaglandin dehydrogenase [NAD(+)]]”: in data set [1], the “efficacy in combination screen (survival)” value is “improved efficacy”.
What is called IC90 is the concentration at which the effect reaches the 90% level. Regarding `Nc1nc2c(ncn2COCCO)c(=O)[nH]1` [acyclovir], the IC90 in data set [2] was 1.84 µg/mL (≈ 8.17 µM); in the data set with ONCR-1010, 0.43 µg/mL (≈ 1.91 µM). The “bioavailability of acyclovir in the CNS” value in data set [3] is “about 1.76 ug/ml”.
